Test results published in patent publication US20240327381A1, “Compounds and Compositions for Selective Degradation of Engineered Proteins” (Celgene Corporation, priority 2023, published 2024).
Where two headings read alike, the source gives them in different places.

Columns and labels:
Helios = biological target: T1, Helios (Homo sapiens, UniProt Q9UKS7); assay: Helios degradation in Jurkat/Helios/HiBit cells (Nano-Glo luminescence); assay type: cell-based; conditions: 18 hr, read-out: Helios Jurkat Hibit IC50
T1 construct: endogenous in cells; host or cells: Jurkat cells, CRISPR/Cas9 knock-in of HiBit at the IKZF2 locus
Description: For Helios, a stable Jurkat cell line was engineered using CRISPR/Cas9 to insert an in-frame HiBit tag into the carboxy-terminal reading frame of the IKZF2 gene. The sequence of human Helios is shown below:
Test compounds were transferred to 1536 well plates using an acoustic dispenser, and Jurkat/Helios/HiBit cells in DMEM/10% FCS were plated at 10,000 cells/well in a final volume of 5 μL. Cells were incubated at 37 C, 95% RH for 18 hr. Luciferase activity was measured by adding 2 μL/well of Nano-Glo reagent (Promega), incubating at RT for 30 min, and reading luminescence on a microtiter plate reader.
(§1) To determine the EC50 value of a compound for the degradation of a given substrate (concentration of compound that achieves half the maximum degradation observed), a four-parameter logistic model (sigmoidal dose-response model) (FIT=(A+{(B−A)/1+[(C/x)D]})) where C is the inflection point (EC50), D is the […], and A and B are the low and high limits of the fit, respectively) was used. All substrate degradation curves were processed and evaluated using ActivityBase (IDBS), a data analysis software package. Ymax is the % protein degraded (Ymin=100−Ymax and is minimum percent protein remaining).

[1] = biological target: T2, IKZF1 ZNF2_ZNF3 Q1F degron-tagged CD19 CAR (Homo sapiens, UniProt Q13422, Q146F); assay: Degradation of Q1F degron-tagged CD19 CAR in Jurkat cells (flow cytometry of CAR levels); assay type: cell-based
T2 construct: ZNF2_ZNF3 Q1F degron (GERPFFCNQCGASFTQKGNLLRHIKLHSGEKPFKCHLCNYACRRRDALTGHLRTHS); fused on or other part: anti-CD19 scFv, CD28 transmembrane domain, 4-1BB costimulatory domain, CD3 zeta signaling domain (the CAR that carries the degron), and Nluc
From the text: Q1F degron-targeting compounds were screened in Jurkat cells engineered to express a IKZF1 ZNF2_ZNF3 Q1F. The cell line was generated with lentiviral vectors containing CD19 CARs tagged with IKZF1 ZNF2_ZNF3 QIF Nluc, which were transduced into Jurkat cells. The CD19 CAR comprised an anti-CD19 scFv, a CD28 transmembrane domain, a 4-1BB costimulatory domain, a CD3ζ signaling domain, and a ZNF2_ZNF3 Q1F degron (GERPFFCNQCGASFTQKGNLLRHIKLHSGEKPFKCHLCNYACRRRDALTGHLRTHS; SEQ ID NO: 1; Q1F substitution underlined). Transduced cells were treated with a titration of each small molecule or no drug and then incubated at 37° C. for 18 hours. Cells were washed and stained with appropriate staining reagent to measure CAR levels. The cells were incubated at 4° C. in the staining reagents for 20 mins and then washed 3 times before being read on the flow cytometer. CAR levels were normalized to cells that had not been treated with drug. EC50 and Ymin values were calculated using the resulting titration curve. This identified small molecules that potently degraded the Q1F degron-tagged CARs (Table 1).
as §1

[2] = Jurkat cells expressing CD19 CAR tagged with IKZF1 ZNF2_ZNF3 Q1F; 18 hours at 37° C.; CAR levels normalized to untreated cells; read-out: Q1F Jurkat IC50
[3] = Ymax is the % protein degraded; Jurkat cells expressing Q1F degron-tagged CD19 CAR; 18 hours; read-out: Q1F Jurkat-YMax
[4] = Jurkat, 18 h, read-out: Q1F Jurkat-YMax

T1 sequence (Q9UKS7 whole entry): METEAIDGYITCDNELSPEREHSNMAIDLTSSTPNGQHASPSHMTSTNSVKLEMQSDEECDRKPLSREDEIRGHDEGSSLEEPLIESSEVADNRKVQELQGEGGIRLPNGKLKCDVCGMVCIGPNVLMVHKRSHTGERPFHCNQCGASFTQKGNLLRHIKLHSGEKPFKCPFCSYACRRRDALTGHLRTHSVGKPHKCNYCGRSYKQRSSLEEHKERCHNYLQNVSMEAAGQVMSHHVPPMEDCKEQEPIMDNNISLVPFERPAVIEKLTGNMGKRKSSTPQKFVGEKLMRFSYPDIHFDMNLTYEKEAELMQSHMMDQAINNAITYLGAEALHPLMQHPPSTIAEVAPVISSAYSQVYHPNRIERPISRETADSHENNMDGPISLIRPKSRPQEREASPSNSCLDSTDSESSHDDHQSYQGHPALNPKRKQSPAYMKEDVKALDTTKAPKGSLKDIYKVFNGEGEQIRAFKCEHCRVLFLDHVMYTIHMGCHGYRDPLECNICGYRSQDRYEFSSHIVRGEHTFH
T1 sequence (Q96SW2 whole entry, further chain): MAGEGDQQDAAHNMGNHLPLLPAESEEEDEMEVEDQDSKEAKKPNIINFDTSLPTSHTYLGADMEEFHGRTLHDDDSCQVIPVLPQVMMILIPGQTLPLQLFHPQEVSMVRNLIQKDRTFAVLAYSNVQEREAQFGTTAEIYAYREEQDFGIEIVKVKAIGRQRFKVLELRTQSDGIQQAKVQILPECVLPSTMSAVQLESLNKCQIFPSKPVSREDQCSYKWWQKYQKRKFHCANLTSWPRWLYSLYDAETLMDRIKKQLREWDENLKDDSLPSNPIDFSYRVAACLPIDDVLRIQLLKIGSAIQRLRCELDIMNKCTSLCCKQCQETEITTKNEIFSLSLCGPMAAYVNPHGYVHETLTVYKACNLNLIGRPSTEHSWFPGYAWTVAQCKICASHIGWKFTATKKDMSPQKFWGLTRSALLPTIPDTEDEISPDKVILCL
T1 sequence (Q16531 whole entry partner): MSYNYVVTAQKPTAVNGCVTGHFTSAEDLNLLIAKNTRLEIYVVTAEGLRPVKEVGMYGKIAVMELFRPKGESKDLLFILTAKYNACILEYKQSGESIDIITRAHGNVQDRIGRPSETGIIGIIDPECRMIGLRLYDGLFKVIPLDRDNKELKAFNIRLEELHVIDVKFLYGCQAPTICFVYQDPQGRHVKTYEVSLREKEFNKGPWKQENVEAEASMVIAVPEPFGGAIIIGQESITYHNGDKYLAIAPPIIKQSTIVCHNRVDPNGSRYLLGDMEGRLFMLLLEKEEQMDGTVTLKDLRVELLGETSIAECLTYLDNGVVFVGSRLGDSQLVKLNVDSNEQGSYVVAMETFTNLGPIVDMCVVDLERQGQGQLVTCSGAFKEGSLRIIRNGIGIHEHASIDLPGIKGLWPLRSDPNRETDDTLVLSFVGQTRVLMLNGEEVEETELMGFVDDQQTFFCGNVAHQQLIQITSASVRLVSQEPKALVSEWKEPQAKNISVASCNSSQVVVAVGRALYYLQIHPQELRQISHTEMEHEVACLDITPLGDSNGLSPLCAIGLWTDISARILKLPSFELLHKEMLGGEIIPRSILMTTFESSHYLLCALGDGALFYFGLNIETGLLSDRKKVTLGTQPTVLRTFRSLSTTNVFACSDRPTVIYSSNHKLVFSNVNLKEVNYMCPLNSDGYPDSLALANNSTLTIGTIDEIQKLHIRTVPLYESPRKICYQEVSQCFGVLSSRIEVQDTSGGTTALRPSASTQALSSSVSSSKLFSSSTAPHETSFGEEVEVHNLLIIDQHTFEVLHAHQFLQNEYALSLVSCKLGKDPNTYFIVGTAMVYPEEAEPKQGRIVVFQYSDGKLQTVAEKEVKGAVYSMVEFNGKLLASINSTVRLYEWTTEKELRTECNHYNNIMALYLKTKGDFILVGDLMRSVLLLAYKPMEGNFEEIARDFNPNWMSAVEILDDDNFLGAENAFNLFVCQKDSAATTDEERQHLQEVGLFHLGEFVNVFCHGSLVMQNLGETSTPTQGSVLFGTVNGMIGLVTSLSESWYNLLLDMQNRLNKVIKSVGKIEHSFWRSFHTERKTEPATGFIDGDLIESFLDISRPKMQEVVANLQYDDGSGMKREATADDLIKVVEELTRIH
T2 sequence (Q13422 whole entry Q146F, the tested form may be a part): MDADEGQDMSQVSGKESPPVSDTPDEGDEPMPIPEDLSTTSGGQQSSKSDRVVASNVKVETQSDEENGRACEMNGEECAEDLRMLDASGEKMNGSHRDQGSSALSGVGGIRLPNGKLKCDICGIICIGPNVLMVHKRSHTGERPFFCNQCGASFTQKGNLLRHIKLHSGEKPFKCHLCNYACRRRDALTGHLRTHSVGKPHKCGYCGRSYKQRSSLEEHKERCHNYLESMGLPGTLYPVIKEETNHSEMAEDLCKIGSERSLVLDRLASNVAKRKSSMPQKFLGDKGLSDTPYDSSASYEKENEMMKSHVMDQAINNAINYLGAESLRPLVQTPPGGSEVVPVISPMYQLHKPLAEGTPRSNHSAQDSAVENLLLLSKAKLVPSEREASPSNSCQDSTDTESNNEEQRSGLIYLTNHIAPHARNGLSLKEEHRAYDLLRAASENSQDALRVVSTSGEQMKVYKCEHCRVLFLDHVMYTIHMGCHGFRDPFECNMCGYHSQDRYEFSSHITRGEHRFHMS

SMILES | DC50 (Helios) [nM] | DC50 [1, 2] [nM] | Dmax [1, 3] [%] | Dmax [1, 4] [%] | DC50 ([1]; read-out: Q1F Jurkat IC50; Jurkat cells expressing CD19 CAR tagged with IKZF1 ZNF2_ZNF3 Q1F; 18 hours at 37° C.; CAR levels normalized to untreated cells) [nM]
O=C1CCC(N2Cc3c(cc(F)c(C4(O)CCN(Cc5cc(C(F)(F)F)cc(C6CC6)n5)CC4)c3F)C2=O)C(=O)N1 (stereo not drawn) [Compound 17, 3-(5-(1-((6-cyclopropyl-4-(trifluoromethyl)pyridin-2-yl)methyl)-4-hydroxypiperidin-4-yl)-4,6-difluoro-1-oxoisoindolin-2-yl)piperidine-2,6-dione] | ≥ 10000 | 28.9 | 69.2 |  | 
O=C1CCC(N2Cc3c(cc(F)c(C4CCN(Cc5ccc6ncsc6c5)CC4)c3F)C2=O)C(=O)N1 (stereo not drawn) [Compound 18, 3-(5-(1-(benzo[d]thiazol-6-ylmethyl)piperidin-4-yl)-4,6-difluoro-1-oxoisoindolin-2-yl) piperidine-2,6-dione] | ≥ 10000 | 0.576 | 93.4 |  | 
O=C1CCC(N2Cc3c(cc(F)c(C4(O)CCN(Cc5ccc(C(F)F)cc5)CC4)c3F)C2=O)C(=O)N1 (stereo not drawn) [Compound 19, 3-(5-(1-(4-(difluoromethyl)benzyl)-4-hydroxypiperidin-4-yl)-4,6-difluoro-1-oxoisoindolin-2-yl)piperidine-2,6-dione] | ≥ 10000 | 5.41 | 83.3 |  | 
O=C1CCC(N2Cc3c(cc(F)c(C4(O)CCN(Cc5ccc(C(F)(F)F)cc5O)CC4)c3F)C2=O)C(=O)N1 (stereo not drawn) [Compound 22, 3-(4,6-difluoro-5-(4-hydroxy-1-(2-hydroxy-4-(trifluoromethyl)benzyl)piperidin-4-yl)-1-oxoisoindolin-2-yl)piperidine-2,6-dione] | ≥ 10000 | 14.3 | 80 |  | 
O=C1CCC(N2Cc3c(cc(F)c(C4(O)CCN(Cc5cccc(C(F)(F)F)c5)CC4)c3F)C2=O)C(=O)N1 (stereo not drawn) [Compound 26, 3-(4,6-difluoro-5-(4-hydroxy-1-(3-(trifluoromethyl)benzyl)piperidin-4-yl)-1-oxoisoindolin-2-yl)piperidine-2,6-dione] | ≥ 10000 | 6.42 | 78.2 |  | 
Cc1ccc(CN2CCC(O)(c3c(F)cc4c(c3F)CN(C3CCC(=O)NC3=O)C4=O)CC2)cc1F (stereo not drawn) [Compound 28, 3-(4,6-difluoro-5-(1-(3-fluoro-4-methylbenzyl)-4-hydroxypiperidin-4-yl)-1-oxoisoindolin-2-yl)piperidine-2,6-dione] | ≥ 10000 | 4.78 | 79.4 |  | 
O=C1CCC(N2Cc3c(cc(F)c(C4(O)CCN(Cc5ccc6ccccc6n5)CC4)c3F)C2=O)C(=O)N1 (stereo not drawn) [Compound 29, 3-(4,6-difluoro-5-(4-hydroxy-1-(quinolin-2-ylmethyl)piperidin-4-yl)-1-oxoisoindolin-2-yl)piperidine-2,6-dione] | ≥ 10000 | 6.42 | 87 |  | 
O=C1CCC(N2Cc3c(cc(F)c(C4(O)CCN(Cc5ccc(C(F)(F)F)cc5Br)CC4)c3F)C2=O)C(=O)N1 (stereo not drawn) [Compound 31, 3-(5-(1-(2-bromo-4-(trifluoromethyl)benzyl)-4-hydroxypiperidin-4-yl)-4,6-difluoro-1-oxoisoindolin-2-yl)piperidine-2,6-dione] | ≥ 10000 | 14 | 82.8 |  | 
O=C1CCC(N2Cc3c(cc(F)c(C4(O)CCN(Cc5ccccc5C(F)(F)F)CC4)c3F)C2=O)C(=O)N1 (stereo not drawn) [Compound 32, 3-(4,6-difluoro-5-(4-hydroxy-1-(2-(trifluoromethyl)benzyl)piperidin-4-yl)-1-oxoisoindolin-2-yl)piperidine-2,6-dione] | ≥ 10000 | 9.54 | 80.2 |  | 
O=C1CCC(N2Cc3c(cc(F)c(C4(O)CCN(CC5CCCCC5)CC4)c3F)C2=O)C(=O)N1 (stereo not drawn) [Compound 33, 3-(5-(1-(cyclohexylmethyl)-4-hydroxypiperidin-4-yl)-4,6-difluoro-1-oxoisoindolin-2-yl)piperidine-2,6-dione] | ≥ 10000 | 192 | 60.4 |  | 
Cc1cc(-c2cc3c(cc2F)C(=O)N(C2CCC(=O)NC2=O)C3)nc(N)c1C (stereo not drawn) [Compound 34, 3-(5-(6-amino-4,5-dimethylpyridin-2-yl)-6-fluoro-1-oxoisoindolin-2-yl) piperidine-2,6-dione] | ≥ 10000 | 7.43 |  | 91.7 | 
O=C1CCC(N2Cc3cc(C4(O)CCN(Cc5ccc6ncsc6c5)CC4)c(F)cc3C2=O)C(=O)N1 (stereo not drawn) [Compound 35, 3-(5-(1-(benzo[d]thiazol-6-ylmethyl)-4-hydroxypiperidin-4-yl)-6-fluoro-1-oxoisoindolin-2-yl) piperidine-2,6-dione] | ≥ 10000 | 144 | 63.3 |  | 
COc1cccc(CN2CCC(O)(c3c(F)cc4c(c3F)CN(C3CCC(=O)NC3=O)C4=O)CC2)c1 (stereo not drawn) [Compound 36, 3-(4,6-difluoro-5-(4-hydroxy-1-(3-methoxybenzyl)piperidin-4-yl)-1-oxoisoindolin-2-yl)piperidine-2,6-dione] | ≥ 10000 | 3.77 | 77.7 |  | 
COc1ccc(CN2CCC(O)(c3c(F)cc4c(c3F)CN(C3CCC(=O)NC3=O)C4=O)CC2)nc1 (stereo not drawn) [Compound 37, 3-(4,6-difluoro-5-(4-hydroxy-1-((5-methoxypyridin-2-yl)methyl)piperidin-4-yl)-1-oxoisoindolin-2-yl)piperidine-2,6-dione] | ≥ 10000 | 33.2 | 62.5 |  | 
COc1cccc(CN2CCC(O)(c3c(F)cc4c(c3F)CN(C3CCC(=O)NC3=O)C4=O)CC2)n1 (stereo not drawn) [Compound 38, 3-(4,6-difluoro-5-(4-hydroxy-1-((6-methoxypyridin-2-yl)methyl)piperidin-4-yl)-1-oxoisoindolin-2-yl)piperidine-2,6-dione] | ≥ 10000 | 24.5 | 70.7 |  | 
Cc1nc(C)c(S(=O)(=O)N(C)CCN2CCC(O)(c3c(F)cc4c(c3F)CN(C3CCC(=O)NC3=O)C4=O)CC2)s1 (stereo not drawn) [Compound 39, N-[2-[4-[2-(2,6-dioxo-3-piperidyl)-4,6-difluoro-1-oxo-isoindolin-5-yl]-4-hydroxy-1-piperidyl]ethyl]-N,2,4-trimethyl-thiazole-5-sulfonamide] | ≥ 10000 |  |  | 58.9 | 93.8
CN(CCN1CCC(O)(c2c(F)cc3c(c2F)CN(C2CCC(=O)NC2=O)C3=O)CC1)S(=O)(=O)c1ccccc1 (stereo not drawn) [Compound 40, N-[2-[4-[2-(2,6-dioxo-3-piperidyl)-4,6-difluoro-1-oxo-isoindolin-5-yl]-4-hydroxy-1-piperidyl]ethyl]-N-methyl-benzenesulfonamide] | ≥ 10000 | 67.7 | 60 |  | 
O=C1CCC(N2Cc3c(cc(F)c(C4(O)CCN(Cc5n[nH]c6ccccc56)CC4)c3F)C2=O)C(=O)N1 (stereo not drawn) [Compound 41, 3-[4,6-difluoro-5-[4-hydroxy-1-(1H-indazol-3-ylmethyl)-4-piperidyl]-1-oxo-isoindolin-2-yl] piperidine-2,6-dione] | ≥ 10000 | 95.3 | 66.2 |  | 
O=C1CCC(N2Cc3c(cc(F)c(C4(O)CCN(Cc5ccc6cn[nH]c6c5)CC4)c3F)C2=O)C(=O)N1 (stereo not drawn) [Compound 42, 3-[4,6-difluoro-5-[4-hydroxy-1-(1H-indazol-6-ylmethyl)-4-piperidyl]-1-oxo-isoindolin-2-yl]piperidine-2,6-dione] | ≥ 10000 | 4.39 | 87.7 |  | 
